Source: patent US10093666B2, “Deuterated O-sulfated beta lactam hydroxamic acids and deuterated N-sulfated beta lactams” (ARIXA PHARMACEUTICALS, INC., priority 2016, dated 2018)

Key:
[1] = Oral dosing of rats (cassette), plasma concentration vs. time by LC/MS/MS; conditions: for Ratio of b/a: ratio of plasma concentrations b to a (tigemonam), oral
Description: (§1) Samples were withdrawn at various time points indicated below and processed using the following procedure. A 50 μL rat plasma sample was transferred to a well of a 96 well-plate, 20 μL of 0.1 ng/μL of Losartan (internal standard) in acetonitrile was added and 300 μL of acetonitrile/formic acid (100/2). The sample was then vortexed and centrifuged at 300 rpm for 5 minutes. Then 200 μL of the supernatant was mixed with 200 μL of double distilled water and was injected (5 μL) on a phenomex Polar-RF 80A column (75×2.0 mm), which was run at 30° C. at a flow rate of 600 μL/minute with a mobile phase A of acetonitrile/formic acid 100/0.02 and a mobile phase B of water/formic acid 100/0.02. The eluate was analyzed by LC/MS/MS (electrospray) to provide the following values of plasma concentration vs. time listed in Table 1, which were then plotted to yield the graph illustrated in FIG. 2.
Each time point above represents a value obtained by averaging the measured plasma concentration of three rats. […] Other compounds may also be tested in the above assay.

[2] = IV dosing of rats (cassette), plasma concentration vs. time by LC/MS/MS; conditions: for Ratio of b/a: ratio of plasma concentrations b to a (tigemonam), rats, IV
Description: as §1, with “A cohort of three rats was IV dosed using 2 mg/kg cassette IV dosing. […] Samples” for “Samples”, “Polar-RP” for “Polar-RF”, “100/0.02.” for “100/0.02. The eluate was analyzed by LC/MS/MS (electrospray) to provide the following values of plasma concentration vs. time listed in Table 1, which were then plotted to yield the graph illustrated in FIG. 2.”
Each time point above represents a value obtained by averaging the measured plasma concentration of three rats.

[2H]C([2H])([2H])C1(C([2H])([2H])[2H])[C@H](NC(=O)/C(=N\OCC(=O)O)c2csc(N)n2)C(=O)N1OS(=O)(=O)O [b]
effect of deuteration of tigemonam on oral bioavailability ([1]; rat, in vivo, po): increase | plasma level greater than the plasma level of tigemonam ([1]; rat, in vivo, po, 5 mg/kg): at least 20% | r = b − a ([1]; rat, in vivo, po, 0.167 h): 266 | r = b − a ([1]; rat, in vivo, po, 0.5 h): 694 | r = b − a ([1]; rat, in vivo, po, 1 h): 531 | r = b − a ([1]; rat, in vivo, po, 2 h): 175 | r = b − a ([1]; rat, in vivo, po, 4 h): 55 | r = b − a ([1]; rat, in vivo, po, 6 h): 4 | r = b − a ([1]; rat, in vivo, po, 8 h): 1 | r = b − a ([1]; rat, in vivo, po, 24 h): 0 | Ratio of b/a ([1]; rats, 0.167 hours): 1.19 | Ratio of b/a ([1]; rats, 0.5 hours): 1.24 | Ratio of b/a ([1]; rats, 1 hours): 1.25 | Ratio of b/a ([1]; rats, 2 hours): 1.26 | Ratio of b/a ([1]; rats, 4 hours): 1.48 | Ratio of b/a ([1]; rats, 8 hours): 1.25 | Ratio of b/a ([1]; rats, C6 hours): 1.15 | oral absorption compared with tigemonam ([1]; rats, oral cassette dosing, 5 mg/kg each): increased level | effect of deuteration of tigemonam on IV bioavailability ([2]; rat, in vivo, iv): no effect | plasma levels compared with tigemonam ([2]; rat, in vivo, iv, 1 mg/kg): almost identical | r = b − a ([2]; rat, in vivo, iv, 0.167 h): 235 | r = b − a ([2]; rat, in vivo, iv, 0.5 h): 19 | r = b − a ([2]; rat, in vivo, iv, 1 h): −31 | r = b − a ([2]; rat, in vivo, iv, 2 h): 21 | r = b − a ([2]; rat, in vivo, iv, 4 h): 2 | r = b − a ([2]; rat, in vivo, iv, 6 h): −2 | r = b − a ([2]; rat, in vivo, iv, 8 h): 0 | r = b − a ([2]; rat, in vivo, iv, 24 h): 0 | Ratio of b/a ([2]; 0.167 hours): 1.04 | Ratio of b/a ([2]; 0.5 hours): 1.01 | Ratio of b/a ([2]; 1 hours): .9 | Ratio of b/a ([2]; 2 hours): 1.14 | Ratio of b/a ([2]; 4 hours): 1.06 | Ratio of b/a ([2]; 6 hours): .6
